# ± gives the standard deviation of the averaged measurements.
# Assays:
# HL-60 = test: cell viability (% survival relative to DMSO control); higher = less cytotoxic; conditions: 72 h
# Procedure, shortened: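 In 384-well plates, the full library was rescreened in duplicate on HL-60 cells in RPMI 1640 with 10% FBS, at 1–10,000 nM in five tenfold concentrations, for 72 h at 37 °C, 5% CO2. Each run also held DMSO or 100 nM of one of three metabolic inhibitors. Viability was measured by CellTiter-Glo and normalised to DMSO wells and to wells with proteasome inhibitor, present at 10 μM. Any area under the curve comes from four-parameter log-logistic fitting with drc and PharmacoGx.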
# LAMA-84 = test: cell viability (% survival relative to DMSO control, bortezomib = 0%); higher = less cytotoxic; conditions: 72 h
# Procedure, shortened: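 After 72 h at 37 °C with 5% CO2, cell viability in 384-well plates was measured by CellTiter-Glo luminescence. The plates held compounds pre-printed at 1, 10, 100, 1000 or 10000 nM in duplicate, and cells from 10 AML and 5 CML lines seeded at densities titrated to linear growth. Percent survival is the duplicate mean, normalised to vehicle as 100% and a 10 µM positive control as 0%.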
# [1] = 0.001 µM, co-treatment: AZD3965 100 nM
# [2] = 0.001 µM, co-treatment: DMSO vehicle
# [3] = 0.001 µM, co-treatment: GSK2194069 100 nM
# [4] = 0.001 µM, co-treatment: pictilisib 100 nM
# [5] = 0.01 µM, co-treatment: AZD3965 100 nM
# [6] = 0.01 µM, co-treatment: DMSO vehicle
# [7] = 0.01 µM, co-treatment: GSK2194069 100 nM
# [8] = 0.01 µM, co-treatment: pictilisib 100 nM
# [9] = 0.1 µM, co-treatment: AZD3965 100 nM
# [10] = 0.1 µM, co-treatment: DMSO vehicle
# [11] = 0.1 µM, co-treatment: GSK2194069 100 nM
# [12] = 0.1 µM, co-treatment: pictilisib 100 nM
# [13] = 1 µM, co-treatment: AZD3965 100 nM
# [14] = 1 µM, co-treatment: DMSO vehicle
# [15] = 1 µM, co-treatment: GSK2194069 100 nM
# [16] = 1 µM, co-treatment: pictilisib 100 nM
# [17] = 10 µM, co-treatment: AZD3965 100 nM
# [18] = 10 µM, co-treatment: DMSO vehicle
# [19] = 10 µM, co-treatment: GSK2194069 100 nM
# [20] = 10 µM, co-treatment: pictilisib 100 nM
Compound,cell viability (HL-60; [1]),cell viability (HL-60; [2]),cell viability (HL-60; [3]),cell viability (HL-60; [4]),cell viability (HL-60; [5]),cell viability (HL-60; [6]),cell viability (HL-60; [7]),cell viability (HL-60; [8]),cell viability (HL-60; [9]),cell viability (HL-60; [10]),cell viability (HL-60; [11]),cell viability (HL-60; [12]),cell viability (HL-60; [13]),cell viability (HL-60; [14]),cell viability (HL-60; [15]),cell viability (HL-60; [16]),cell viability (HL-60; [17]),cell viability (HL-60; [18]),cell viability (HL-60; [19]),cell viability (HL-60; [20]),cell viability (LAMA-84; 1 nM),cell viability (LAMA-84; 10 nM),cell viability (LAMA-84; 100 nM),cell viability (LAMA-84; 1000 nM),cell viability (LAMA-84; 10000 nM)
O=c1cc(-c2ccccc2)oc2cc(O)c(O)c(O)c12 [Baicalein],99.72 ± 0.59%,102.7 ± 0.15%,97.26 ± 0.92%,99.21 ± 0.82%,100 ± 5.5%,102 ± 1.9%,102 ± 2.2%,106 ± 2.4%,103 ± 4.9%,101 ± 4.4%,93.5 ± 4.6%,98.9 ± 2.1%,97.6 ± 1.2%,98.895 ± 0.092%,98.1 ± 5.9%,106 ± 1.5%,101.4 ± 0.93%,102 ± 7.6%,99.8 ± 4%,89.5 ± 7.1%,98.2%,99.6%,94.4%,104%,75%
C[C@](N)(Cc1ccc(O)cc1)C(=O)O [Metirosine],101 ± 4.8%,108 ± 5.7%,105 ± 6%,116 ± 5.2%,101.8 ± 0.89%,104 ± 3%,104 ± 11%,105 ± 17%,99 ± 11%,101 ± 4.5%,98.9 ± 4%,98.9 ± 5.9%,95.8 ± 6.8%,101 ± 5.1%,93.8 ± 14%,81.1 ± 8.7%,97.76 ± 0.91%,103 ± 1.1%,99.6 ± 1%,105 ± 10%,102%,108%,107%,105%,99.2%
CC1(C)[C@@H](O[C@H]2O[C@H](C(=O)O)[C@@H](O)[C@H](O)[C@H]2O[C@@H]2O[C@H](C(=O)O)[C@@H](O)[C@H](O)[C@H]2O)CC[C@]2(C)[C@H]3C(=O)C=C4[C@@H]5C[C@@](C)(C(=O)O)CC[C@]5(C)CC[C@@]4(C)[C@]3(C)CC[C@@H]12 [Glycyrrhizin],103 ± 1.1%,102 ± 4.5%,102 ± 6.3%,94 ± 8.3%,102 ± 6.2%,103 ± 1.6%,100 ± 5.3%,99.5 ± 4.6%,102 ± 4%,95.5 ± 2.6%,105 ± 10%,99.1 ± 9.6%,102.6 ± 0.12%,98.7 ± 3%,110.4 ± 0.55%,97.7 ± 1.7%,105 ± 3.8%,101 ± 3%,104 ± 3.1%,103 ± 2.7%,94.9%,98.8%,98.7%,92.7%,102%
NC(=O)c1cccc(-c2cccc(OC(=O)NC3CCCCC3)c2)c1 [URB-597],101 ± 2.7%,100 ± 5.5%,103 ± 3.4%,108 ± 3.8%,105 ± 2.3%,104 ± 6.3%,113.65 ± 0.074%,106.8 ± 0.33%,101 ± 8.3%,99.6 ± 1.3%,98.1 ± 5.4%,100 ± 8.5%,103 ± 8.5%,100 ± 1.9%,101 ± 11%,97.2 ± 8.2%,103 ± 2%,102 ± 2.3%,104 ± 6.6%,111 ± 5.6%,99.8%,96.9%,99.6%,98.3%,96.1%
O=C(NNc1ccccc1)c1ccncc1 [PluriSln 1],101 ± 1.6%,102 ± 3%,103.4 ± 0.8%,94.1 ± 5.3%,101 ± 3.5%,102 ± 6.3%,103 ± 3.5%,107 ± 11%,96.2 ± 5.6%,102 ± 1.2%,95.8 ± 3.6%,83.7 ± 21%,110 ± 11%,103 ± 1.5%,104 ± 5.4%,116 ± 2.9%,36 ± 2%,49.8 ± 4.2%,91.3 ± 1%,92.411 ± 0.013%,88.4%,99.4%,92.1%,106%,39.9%
O=c1oc2c(O)c(O)cc3c(=O)oc4c(O)c(O)cc1c4c23 [Benzoaric Acid],98.61 ± 0.51%,102.3 ± 0.26%,101 ± 0.64%,106 ± 9.2%,96.4 ± 5.9%,100.2 ± 0.36%,97.6 ± 3.1%,104 ± 17%,101 ± 5.7%,99.9 ± 1.1%,95.1 ± 1.7%,101.4 ± 0.41%,99.21 ± 0.23%,102 ± 4.1%,94.3 ± 0.58%,99.2 ± 1.9%,99.13 ± 0.98%,100 ± 7.2%,100 ± 3.9%,96.3 ± 2.1%,101%,95.9%,98.9%,94.6%,105%
Cc1ccccc1C(C(=O)NC1CCCCC1)N(C(=O)Cn1ccnc1C)c1cccc(F)c1 (stereo not given) [AGI-5198],95.1 ± 5.2%,98.5 ± 2.9%,103 ± 7.5%,98.4 ± 13%,98.5 ± 3.8%,106 ± 3.2%,101 ± 5.5%,114 ± 16%,93.2 ± 6.7%,104 ± 7.8%,88.5 ± 15%,103 ± 3.8%,91.8 ± 9.9%,99.4 ± 1.1%,101 ± 1.5%,102 ± 0.28%,100.5 ± 0.15%,95.7 ± 5.1%,106 ± 5.5%,104 ± 26%,97.6%,104%,115%,97.2%,99.9%
N/C(=N\CCCC(N)C(=O)O)N[N+](=O)[O-] [L-NNA],104 ± 2.6%,102.6 ± 0.88%,102 ± 4.6%,97.6 ± 1.3%,105 ± 4.7%,99.86 ± 0.89%,99.1 ± 1.9%,95.8 ± 8.7%,106 ± 8.5%,105 ± 1.6%,90.4 ± 40%,102 ± 14%,98.7 ± 2.9%,99.1 ± 3.6%,99.9 ± 4%,96.12 ± 0.83%,101.2 ± 0.57%,102 ± 7%,101 ± 2.3%,100 ± 14%,101%,105%,100%,90.9%,101%
Cc1cn([C@H]2C[C@H](O)[C@@H](COP(=O)(O)OP(=O)(O)O)O2)c(=O)[nH]c1=O [Thymidine diphosphate],97.44 ± 0.59%,101 ± 1.5%,104.9 ± 0.34%,105 ± 1.4%,97.9 ± 1%,100.1 ± 0.28%,75.9 ± 32%,94 ± 2.1%,101 ± 0.85%,97.7 ± 1.8%,97.8 ± 6%,106 ± 2.9%,102 ± 2.8%,101 ± 2.7%,104 ± 6.7%,111 ± 1.5%,98.5 ± 4.8%,95.1 ± 5.3%,95.3 ± 9.4%,89.1 ± 5.6%,97.1%,97.9%,106%,94.5%,86.7%
